Values quoted from earlier work in patent publication US20110003005A1, “Methods of Treating PDNV and PONV with Extended Release Ondansetron Compositions” (priority 2009, published 2011).

Cc1nccn1CC1CCc2c(c3ccccc3n2C)C1=O (centres unmarked) [ondansetron]
effect of ondansetron administered after the 24 h period following surgery (Pan et al. 2008): efficacy | effect of oral ondansetron administered in the 24 h period after surgery (Pan et al. 2008): no effect | nausea and vomiting post-discharge, relative to placebo (orally administered, Gan et al. 2002): did reduce | improving control of nausea and vomiting in the 24 hour period following surgery (orally administered, Kovac et al. 1999): ineffective | orally administered ondansetron versus placebo, nausea and vomiting (over a 24 and 72 h period following surgery, Thagaard et al. 2003): no difference
